Measurements from patent US10538498B2, “1,3,4-oxadiazole sulfonamide derivative compounds as histone deacetylase 6 inhibitor, and the pharmaceutical composition comprising the same” (Chong Kun Dang Pharmaceutical Corp., priority 2015, dated 2020).

How the values were obtained:
human recombinant HDAC6 = molecular target: T1, human recombinant HDAC6 (Homo sapiens, UniProt Q9UBN7); assay: HDAC6 enzyme activity inhibition assay (HDAC Fluorimetric Drug Discovery Kit); assay type: biochemical; conditions: for HDAC6 selectivity (fold): HDAC1 vs HDAC6; for IC50: same protocol as the HDAC1 enzyme activity test
T1 construct: purchased Calbiochem 382180
T1 sequence (Q9UBN7 1-1215): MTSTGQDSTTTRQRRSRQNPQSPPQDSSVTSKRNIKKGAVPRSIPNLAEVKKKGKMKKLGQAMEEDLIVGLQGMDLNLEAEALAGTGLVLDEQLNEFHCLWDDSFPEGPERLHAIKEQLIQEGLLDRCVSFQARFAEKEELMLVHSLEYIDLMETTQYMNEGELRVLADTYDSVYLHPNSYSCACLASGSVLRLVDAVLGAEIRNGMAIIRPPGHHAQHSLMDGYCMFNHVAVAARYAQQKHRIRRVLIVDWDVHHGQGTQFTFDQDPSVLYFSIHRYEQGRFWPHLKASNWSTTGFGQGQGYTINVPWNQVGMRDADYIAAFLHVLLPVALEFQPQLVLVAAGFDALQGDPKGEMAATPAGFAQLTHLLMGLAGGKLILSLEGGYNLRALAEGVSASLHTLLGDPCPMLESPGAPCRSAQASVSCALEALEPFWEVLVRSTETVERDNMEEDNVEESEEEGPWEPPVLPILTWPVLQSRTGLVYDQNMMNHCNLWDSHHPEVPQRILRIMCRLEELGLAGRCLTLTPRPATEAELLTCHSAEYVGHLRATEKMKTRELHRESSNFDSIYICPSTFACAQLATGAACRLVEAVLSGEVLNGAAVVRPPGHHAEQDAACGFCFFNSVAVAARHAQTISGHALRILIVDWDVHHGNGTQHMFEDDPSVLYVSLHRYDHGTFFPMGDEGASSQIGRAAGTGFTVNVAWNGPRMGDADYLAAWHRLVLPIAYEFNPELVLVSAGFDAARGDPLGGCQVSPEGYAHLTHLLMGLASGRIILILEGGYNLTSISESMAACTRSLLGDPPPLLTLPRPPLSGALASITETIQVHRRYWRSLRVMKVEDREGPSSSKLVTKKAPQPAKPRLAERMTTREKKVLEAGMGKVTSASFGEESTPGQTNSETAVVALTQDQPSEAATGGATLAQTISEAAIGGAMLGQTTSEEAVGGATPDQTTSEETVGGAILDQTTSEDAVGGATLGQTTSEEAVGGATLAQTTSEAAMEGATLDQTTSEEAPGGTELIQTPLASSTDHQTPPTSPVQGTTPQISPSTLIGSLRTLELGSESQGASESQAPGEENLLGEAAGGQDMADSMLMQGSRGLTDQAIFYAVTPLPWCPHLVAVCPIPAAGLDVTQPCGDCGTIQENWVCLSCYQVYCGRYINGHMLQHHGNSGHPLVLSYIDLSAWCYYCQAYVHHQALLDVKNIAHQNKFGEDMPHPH
Method in brief: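 Both isoforms are run by an identical fluorimetric protocol: deacetylation of 10 μM Fluor de Lys-SIRT1 substrate by 0.3 μg recombinant enzyme over 60 min at 30° C, in the presence of 5-fold compound dilutions. Signal is developed for 30 min and read at Ex 360/Em 460 to derive IC50.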

human recombinant HDAC1 = molecular target: T2, human recombinant HDAC1 (Homo sapiens, UniProt Q13547); assay: HDAC1 enzyme activity inhibition assay (HDAC Fluorimetric Drug Discovery Kit); assay type: biochemical; conditions: 0.3 μg enzyme, 10 μM substrate, 30° C., 60 minutes
T2 construct: purchased Enzo Life Science BML-SE456
Procedure: In order to examine the HDAC6 selectivity of the compounds of formula I of the present invention by HDAC1 and HDAC6 enzymatic activity inhibition assays, an experiment was performed using a conventional substance as a control.
HDAC enzyme activity was measured using a HDAC Fluorimetric Drug Discovery Kit (BML-AK511, 516, Enzo Life Science). For the HDAC1 enzyme activity test, human recombinant HDAC1 (BML-SE456) was used as an enzyme source, and Fluor de Lys®-“SIRT1 (BNL-KI177) was used as a substrate. A 5-fold dilution of the compound was seeded into a 96-well plate, and then 0.3 μg of the enzyme and 10 μM of the substrate were added to each well of the plate and allowed to react at 30° C. for 60 minutes. Then, Fluor de Lys®-Developer II (BML-KI176) was added thereto and allowed to react for 30 minutes, after which the fluorescence value (Ex 360, Em 460) was measured using a multi-plate reader (Flexstation 3, Molecular Device). The HDAC6 enzyme was tested using human recombinant HDAC6 (382180) (Calbiochem) according to the same protocol as the HDAC1 enzyme activity test method. Based on the resulting values, each IC50 value was calculated using GraphPad Prism4.0 program.

T2 sequence (Q13547 whole entry): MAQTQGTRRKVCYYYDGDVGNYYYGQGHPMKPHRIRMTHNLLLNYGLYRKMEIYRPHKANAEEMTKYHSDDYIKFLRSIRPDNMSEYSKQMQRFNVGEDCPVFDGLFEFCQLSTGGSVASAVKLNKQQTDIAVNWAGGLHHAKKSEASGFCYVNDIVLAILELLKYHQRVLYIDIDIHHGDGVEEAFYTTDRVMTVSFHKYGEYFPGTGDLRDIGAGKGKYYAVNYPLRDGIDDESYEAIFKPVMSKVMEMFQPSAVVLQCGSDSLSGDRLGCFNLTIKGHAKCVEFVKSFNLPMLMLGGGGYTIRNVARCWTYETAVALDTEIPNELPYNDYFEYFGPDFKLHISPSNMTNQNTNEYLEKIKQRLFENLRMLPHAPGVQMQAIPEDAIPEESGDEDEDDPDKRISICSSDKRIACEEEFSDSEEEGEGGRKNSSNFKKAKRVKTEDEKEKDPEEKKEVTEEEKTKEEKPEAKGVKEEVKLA

SMILES | HDAC6 selectivity (fold) (human recombinant HDAC6) | IC50 (human recombinant HDAC6) [µM] | IC50 (human recombinant HDAC1) [µM]
CCS(=O)(=O)N(Cc1ccc(-c2nnc(C(F)F)o2)cn1)c1ccc(Cl)c(Cl)c1 [Compound 11507, N-(3,4-dichlorophenyl)-N-((5-(5-(difluoromethyl)-1,3,4-oxadiazol-2-yl)pyridin-2-yl)methyl)ethanesulfonamide] | 3672 | 0.014 | 51.4
CCS(=O)(=O)N(Cc1ccc(-c2nnc(C(F)F)o2)cn1)c1cc(C)cc(Cl)c1 [Compound 11508, N-(3-chloro-5-methylphenyl)-N-((5-(5-(difluoromethyl)-1,3,4-oxadiazol-2-yl)pyridin-2-yl)methyl)ethanesulfonamide] | 2155 | 0.023 | 49.6
O=S(=O)(CCN1CCCC1)N(Cc1ccc(-c2nnc(C(F)F)o2)cc1F)c1ccc(F)c(Cl)c1 [Compound 11514, N-(3-chloro-4-fluorophenyl)-N-(4-(5-(difluoromethyl)-1,3,4-oxadiazol-2-yl)-2-fluorobenzyl)-2-(pyrrolidin-1-yl)ethane-1-sulfonamide] | 938 | 0.043 | 40.3
CS(=O)(=O)N(Cc1cnc(-c2nnc(C(F)F)o2)cn1)c1ccccc1 [Compound 11518, N-((5-(5-(difluoromethyl)-1,3,4-oxadiazol-2-yl)pyrazin-2-yl)methyl)-N-phenylmethanesulfonamide] | 586 | 0.068 | 39.8
CCS(=O)(=O)N(Cc1ccc(-c2nnc(C(F)F)o2)cc1F)c1ccc2cnn(C)c2c1 [Compound 11521, N-(4-(5-(difluoromethyl)-1,3,4-oxadiazol-2-yl)-2-fluorobenzyl)-N-(1-methyl-1H-indazol-6-yl)ethanesulfonamide] | 2407 | 0.018 | 43.3
CS(=O)(=O)N(Cc1ncc(-c2nnc(C(F)(F)F)o2)cn1)c1ccccc1 [Compound 11565, N-phenyl-N-((5-(5-(trifluoromethyl)-1,3,4-oxadiazol-2-yl)pyrimidin-2-yl)methyl)methanesulfonamide] | 312 | 0.149 | 46.5
CS(=O)(=O)N(Cc1ccc(-c2nnc(C(F)(F)F)o2)nn1)c1ccccc1 [Compound 11567, N-phenyl-N-((6-(5-(trifluoromethyl)-1,3,4-oxadiazol-2-yl)pyridazin-3-yl)methyl)methanesulfonamide] | 7 | 4.33 | 30.9
CS(=O)(=O)N(Cc1cnc(-c2nnc(C(F)(F)F)o2)cn1)c1ccccc1 [Compound 11573, N-phenyl-N-((5-(5-(trifluoromethyl)-1,3,4-oxadiazol-2-yl)pyrazin-2-yl)methyl)methanesulfonamide] | 1 | 2.29 | 2.54
CN1CCC(S(=O)(=O)N(Cc2ccc(-c3nnc(C(F)F)o3)cc2)c2ccccc2)CC1 [Compound 11637, N-(4-(5-(difluoromethyl)-1,3,4-oxadiazol-2-yl)benzyl)-1-methyl-N-phenylpiperidine-4-sulfonamide] | 3349 | 0.02 | 67
CC(C)N1CCC(S(=O)(=O)N(Cc2ccc(-c3nnc(C(F)F)o3)cc2)c2ccccc2)CC1 [Compound 11638, N-(4-(5-(difluoromethyl)-1,3,4-oxadiazol-2-yl)benzyl)-1-isopropyl-N-phenylpiperidine-4-sulfonamide] | 1778 | 0.023 | 40.9
O=S(=O)(C1CCN(C2CCC2)CC1)N(Cc1ccc(-c2nnc(C(F)F)o2)cc1)c1ccccc1 [Compound 11639, 1-cyclobutyl-N-(4-(5-(difluoromethyl)-1,3,4-oxadiazol-2-yl)benzyl)-N-phenylpiperidine-4-sulfonamide] | 1849 | 0.042 | 77.7
O=S(=O)(CCN1CCCC1)N(Cc1ccc(-c2nnc(C(F)F)o2)cc1)c1ccccc1 [Compound 11645, N-(4-(5-(difluoromethyl)-1,3,4-oxadiazol-2-yl)benzyl)-N-phenyl-2-(pyrrolidin-1-yl)ethane-1-sulfonamide] | 1277 | 0.061 | 77.9
C[C@@H]1CN(CCS(=O)(=O)N(Cc2ccc(-c3nnc(C(F)F)o3)cc2)c2ccccc2)C[C@H](C)N1C [Compound 11646, N-(4-(5-(difluoromethyl)-1,3,4-oxadiazol-2-yl)benzyl)-N-phenyl-2-((3S,5R)-3,4,5-trimethylpiperazin-1-yl)ethane-1-sulfonamide] | 7254 | 0.015 | 109
O=S(=O)(CCCN1CCCC1)N(Cc1ccc(-c2nnc(C(F)F)o2)cc1)c1ccccc1 [Compound 11647, N-(4-(5-(difluoromethyl)-1,3,4-oxadiazol-2-yl)benzyl)-N-phenyl-3-(pyrrolidin-1-yl)propane-1-sulfonamide] | 3626 | 0.022 | 79.8
CS(=O)(=O)N1CCN(CCCS(=O)(=O)N(Cc2ccc(-c3nnc(C(F)F)o3)cc2)c2ccccc2)CC1 [Compound 11648, N-(4-(5-(difluoromethyl)-1,3,4-oxadiazol-2-yl)benzyl)-3-(4-(methylsulfonyl)piperazin-1-yl)-N-phenylpropane-1-sulfonamide] | 8300 | 0.06 | 498
O=C(c1cncn1CCS(=O)(=O)N(Cc1ccc(-c2nnc(C(F)F)o2)cc1)c1ccccc1)C(F)F [Compound 11678, 2-(5-(2,2-difluoroacetyl)-1H-imidazol-1-yl)-N-(4-(5-(difluoromethyl)-1,3,4-oxadiazol-2-yl)benzyl)-N-phenylethane-1-sulfonamide] | 975 | 0.056 | 54.6
O=S(=O)(CCN1CCN(CCCO)CC1)N(Cc1ccc(-c2nnc(C(F)F)o2)cc1)c1ccccc1 [Compound 11679, N-(4-(5-(difluoromethyl)-1,3,4-oxadiazol-2-yl)benzyl)-2-(4-(3-hydroxypropyl)piperazin-1-yl)-N-phenylethane-1-sulfonamide] | 2666 | 0.023 | 61.3
O=S(=O)(C1CCN(C2COC2)CC1)N(Cc1ccc(-c2nnc(C(F)F)o2)cc1)c1ccccc1 [Compound 11680, N-(4-(5-(difluoromethyl)-1,3,4-oxadiazol-2-yl)benzyl)-1-(oxetan-3-yl)-N-phenylpiperidine-4-sulfonamide] | 2634 | 0.029 | 76.4
Cc1cccc(N(Cc2ccc(-c3nnc(C(F)F)o3)cn2)S(=O)(=O)C2CCN(C3CC4CCC3C4)CC2)c1 (stereo not drawn) [Compound 11686, 1-(bicyclo[2.2.1]heptan-2-yl)-N-((5-(5-(difluoromethyl)-1,3,4-oxadiazol-2-yl)pyridin-2-yl)methyl)-N-(m-tolyl)piperidine-4-sulfonamide] | 654 | 0.0921 | 60.3
